# Measurements published in patent US8003704B2, “Methods and compositions for the treatment of alcoholism and alcohol dependence” (priority 2000, dated 2011).
# Legend:
# Type in all cases: biochemical
# [1] = tested on: AlDH of bacterial sources; assay: Screening of tryptophan metabolites for inhibition of bacterial AlDH activity in vitro; conditions: for % inhibition of AlDH activity: 100 μM concentration, in vitro
# Description: Tryptophan and its various metabolites were tested for possible inhibition of activity of AlDH of bacterial sources. The terms “inhibitor of AlDH activity” and the like mean that the activity of AlDH in vivo in the presence of the inhibitor is reduced. In practice, this may be predicted by reference to the inhibitory activity of the compound or composition in vitro.
# An enzyme preparation was purchased from Sigma, (Poole, Dorset, UK) and was used for the screening of tryptophan and its metabolites. A number of preliminary experiments were performed to optimise the conditions of the assay, which was performed according to standard experimental conditions published in the literature and well known to those skilled in the art. All assays were performed in triplicate or quadruplicate determinations for both controls (no additions) and tryptophan metabolites.
# Tryptophan and its metabolites were first tested at a 100 μM concentration. The tryptophan metabolites screened included the following: […]
# [2] = target: T1, low Km AlDH from rat liver (Rattus norvegicus, UniProt P11884); assay: Inhibition of mammalian mitochondrial (low Km) AlDH in rat liver preparation; conditions: Example 3, preliminary results, 2 μM concentration
# T1 construct: using a preparation from rat liver containing both Low Km and high Km AlDH; from tissue; host or cells: rat liver preparation
# T1 sequence (P11884 20-519): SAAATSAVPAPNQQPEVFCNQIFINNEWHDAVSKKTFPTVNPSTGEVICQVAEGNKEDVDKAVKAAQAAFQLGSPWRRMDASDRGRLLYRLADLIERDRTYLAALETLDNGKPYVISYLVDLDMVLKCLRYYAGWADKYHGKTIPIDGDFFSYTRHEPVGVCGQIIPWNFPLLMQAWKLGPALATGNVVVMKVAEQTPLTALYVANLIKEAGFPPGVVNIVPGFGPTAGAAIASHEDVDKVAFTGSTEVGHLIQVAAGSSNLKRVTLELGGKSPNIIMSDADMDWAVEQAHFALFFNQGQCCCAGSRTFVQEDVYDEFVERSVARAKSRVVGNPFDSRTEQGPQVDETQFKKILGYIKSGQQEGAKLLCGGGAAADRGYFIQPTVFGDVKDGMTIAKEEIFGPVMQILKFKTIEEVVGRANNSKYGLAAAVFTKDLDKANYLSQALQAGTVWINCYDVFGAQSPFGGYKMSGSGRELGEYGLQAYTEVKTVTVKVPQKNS
# [3] = target: T1, low Km AlDH from rat liver; assay: as above; conditions: Example 4, rat liver low Km AlDH, 5 μM acetaldehyde
# Description: Experiments were therefore performed using a preparation from rat liver in which both the low Km and the high Km enzymes can be measured simultaneously, but at different substrate (acetaldehyde) concentrations, namely, 5 μM for the low Km and 5 mM for the high Km, enzyme.
smiles,measurement,setting,value
O=C(O)c1cc(O)c2cccc(O)c2n1 [xanthurenic acid],% inhibition of AlDH activity,[1],56%
O=C(O)Cc1c[nH]c2ccc(O)cc12 [5-hydroxyindol-3-ylacetic acid],% inhibition of AlDH activity,[1],4%
c1ccc2c(c1)[nH]c1cnccc12 [norharman],% inhibition of AlDH activity,[1],23%
"CCN(CC)C(=S)SSC(=S)N(CC)CC [disulfiram, reference compound]",inhibition of the mammalian low km enzyme,[2],30-46%
same,inhibition of activity of the low Km enzyme,[3]; 2 μM concentration,30-46%
same,inhibition of activity of the low Km enzyme,[3]; 10 μM concentration,38-43%
same,inhibition of activity of the low Km enzyme,[3]; 100 μM concentration,46-50%
O=C(O)CCCC(=O)C(=O)O [α-ketoadipic acid],% inhibition of AlDH activity,[1],1%
O=C(O)c1cc(=O)c2ccccc2[nH]1 [kynurenic acid],inhibition of bacterial AlDH activity,[1]; 2 μM concentration,5%
same,inhibition of bacterial AlDH activity,[1]; 10 μM concentration,30%
same,% inhibition of AlDH activity,[1],90%
same,inhibition of the mammalian low km enzyme,[2],30%
same,inhibition of activity of the low Km enzyme,[3]; 2 μM concentration,40%
same,inhibition of activity of the low Km enzyme,[3]; 10 μM concentration,43%
same,inhibition of activity of the low Km enzyme,[3]; 100 μM concentration,43%
N[C@@H](Cc1c[nH]c2ccccc12)C(=O)O [tryptophan],% inhibition of AlDH activity,[1],2%
N[C@@H](Cc1c[nH]c2ccc(O)cc12)C(=O)O [5-hydroxytrytophan],% inhibition of AlDH activity,[1],23%
NC(=O)c1cccnc1 [nicotinamide],% inhibition of AlDH activity,[1],7%
Nc1ccccc1C(=O)CC(N)C(=O)O (stereo not drawn) [kynurenine],% inhibition of AlDH activity,[1],24%
O=CCc1c[nH]c2ccccc12 [indol-3-ylacetaldehyde],% inhibition of AlDH activity,[1],55%
Nc1ccccc1C(=O)O [anthranilic acid],% inhibition of AlDH activity,[1],9%
Nc1c(O)cccc1C(=O)CC(N)C(=O)O (stereo not drawn) [3-hydroxykynurenine],inhibition of bacterial AlDH activity,[1]; 2 μM concentration,+1%
same,inhibition of bacterial AlDH activity,[1]; 10 μM concentration,55%
same,% inhibition of AlDH activity,[1],97%
same,inhibition of the mammalian low km enzyme,[2],65%
same,inhibition of activity of the low Km enzyme,[3]; 2 μM concentration,55%
same,inhibition of activity of the low Km enzyme,[3]; 10 μM concentration,52%
same,inhibition of activity of the low Km enzyme,[3]; 100 μM concentration,69%
O=C(O)c1ccc2ccccc2n1 [quinaldic acid],% inhibition of AlDH activity,[1],7%
OCCc1c[nH]c2ccc(O)cc12 [5-hydroxytryptophol],% inhibition of AlDH activity,[1],7%
O=C(O)Cc1c[nH]c2ccccc12 [indol-3-ylacetic acid],% inhibition of AlDH activity,[1],11%
NCCc1c[nH]c2ccccc12 [tryptamine],% inhibition of AlDH activity,[1],0%
Nc1c(O)cccc1C(=O)O [3-hydroxyanthranilic acid],inhibition of bacterial AlDH activity,[1]; 2 μM concentration,3%
same,inhibition of bacterial AlDH activity,[1]; 10 μM concentration,17%
same,% inhibition of AlDH activity,[1],97%
same,inhibition of the mammalian low km enzyme,[2],46%
same,inhibition of activity of the low Km enzyme,[3]; 2 μM concentration,46%
same,inhibition of activity of the low Km enzyme,[3]; 10 μM concentration,54%
same,inhibition of activity of the low Km enzyme,[3]; 100 μM concentration,76%
O=C(O)C(=O)Cc1c[nH]c2ccccc12 [indol-3-ylpyruvic acid],inhibition of bacterial AlDH activity,[1]; 2 μM concentration,24%
same,inhibition of bacterial AlDH activity,[1]; 10 μM concentration,29%
same,% inhibition of AlDH activity,[1],94%
same,inhibition of the mammalian low km enzyme,[2],37%
same,inhibition of activity of the low Km enzyme,[3]; 2 μM concentration,30%
same,inhibition of activity of the low Km enzyme,[3]; 10 μM concentration,38%
same,inhibition of activity of the low Km enzyme,[3]; 100 μM concentration,53%
O=C(O)c1cccnc1C(=O)O [quinolinic acid],% inhibition of AlDH activity,[1],13%
NCCc1c[nH]c2ccc(O)cc12 [5-hydroxytryptamine],% inhibition of AlDH activity,[1],15%
